Entries after “also recorded” stand apart in the source; their conditions may differ.
Tests used:
LRP1 [1] = biological target: LRP1 (Mus musculus, UniProt Q91ZX7); experiment: BEI% of 125I-Aβ40 with LRP1 inhibition by intracerebral RAP; format: in vivo, C57BL/6 mice; conditions: for BEI% of 125I-Aβ40 after RAP pretreatment: RAP 19.5 ng/0.5 µl
[2] = Body weight during in vivo treatment; set-up: species or system C57BL/6 wild-type male mice; conditions: caffeine 40 mg/kg ip once daily, treatment limited to 2 weeks
P-gp [3] = experiment: Immunofluorescence staining of P-gp in isolated brain microvessels; set-up: species or system C57BL/6 wild-type mice; conditions: mouse, in vivo
[4] = Drug concentration in plasma and brain homogenate; format: in vivo, C57BL/6 wild-type male mice; conditions: for concentration at 3 h: brain homogenate
RAGE = experiment: Western blot of RAGE in isolated brain microvessels; format: in vivo, C57BL/6 wild-type mice; conditions: treated mice vs control
MRP1 = experiment: Western blot of MRP1 in brain homogenate; format: in vivo, C57BL/6 wild-type mice; conditions: treated mice vs control
LRP1 [5] = experiment: Western blot of LRP1 protein in bEnd3 cells after drug treatment; conditions: 50 µM, 72 h, vs control (DMSO)
LRP1 [6] = experiment: RT-PCR of LRP1 mRNA in bEnd3 cells; format: cell-based, mouse; conditions: 50 µM, 72 h, vs control
LRP1 [7] = experiment: Immunofluorescence staining of LRP1 in isolated brain microvessels; set-up: species or system C57BL/6 wild-type mice; conditions: mouse, in vivo
[8] = cited from earlier work
P-gp [9] = biological target: P-gp (Mus musculus, UniProt P21447); experiment: BEI% of 125I-Aβ40 with P-gp inhibition by intracerebral valspodar; format: in vivo, C57BL/6 mice; conditions: for BEI% of 125I-Aβ40 after valspodar pretreatment: valspodar 24 ng/0.5 µl
[10] = after administration of 6.4 mg/kg dose; cited from earlier work
MDR1 = conditions: bEnd3 cells, 50 µM, 72 h, vs control
P-gp [11] = conditions: bEnd3 cells, 50 µM, 72 h, vs control (DMSO)
cognitive decline = conditions: mild to moderate AD patients, 3-month course of 300 mg/day; cited from earlier work

LRP1 (Mus musculus, UniProt Q91ZX7), sequence (Q91ZX7 20-4545): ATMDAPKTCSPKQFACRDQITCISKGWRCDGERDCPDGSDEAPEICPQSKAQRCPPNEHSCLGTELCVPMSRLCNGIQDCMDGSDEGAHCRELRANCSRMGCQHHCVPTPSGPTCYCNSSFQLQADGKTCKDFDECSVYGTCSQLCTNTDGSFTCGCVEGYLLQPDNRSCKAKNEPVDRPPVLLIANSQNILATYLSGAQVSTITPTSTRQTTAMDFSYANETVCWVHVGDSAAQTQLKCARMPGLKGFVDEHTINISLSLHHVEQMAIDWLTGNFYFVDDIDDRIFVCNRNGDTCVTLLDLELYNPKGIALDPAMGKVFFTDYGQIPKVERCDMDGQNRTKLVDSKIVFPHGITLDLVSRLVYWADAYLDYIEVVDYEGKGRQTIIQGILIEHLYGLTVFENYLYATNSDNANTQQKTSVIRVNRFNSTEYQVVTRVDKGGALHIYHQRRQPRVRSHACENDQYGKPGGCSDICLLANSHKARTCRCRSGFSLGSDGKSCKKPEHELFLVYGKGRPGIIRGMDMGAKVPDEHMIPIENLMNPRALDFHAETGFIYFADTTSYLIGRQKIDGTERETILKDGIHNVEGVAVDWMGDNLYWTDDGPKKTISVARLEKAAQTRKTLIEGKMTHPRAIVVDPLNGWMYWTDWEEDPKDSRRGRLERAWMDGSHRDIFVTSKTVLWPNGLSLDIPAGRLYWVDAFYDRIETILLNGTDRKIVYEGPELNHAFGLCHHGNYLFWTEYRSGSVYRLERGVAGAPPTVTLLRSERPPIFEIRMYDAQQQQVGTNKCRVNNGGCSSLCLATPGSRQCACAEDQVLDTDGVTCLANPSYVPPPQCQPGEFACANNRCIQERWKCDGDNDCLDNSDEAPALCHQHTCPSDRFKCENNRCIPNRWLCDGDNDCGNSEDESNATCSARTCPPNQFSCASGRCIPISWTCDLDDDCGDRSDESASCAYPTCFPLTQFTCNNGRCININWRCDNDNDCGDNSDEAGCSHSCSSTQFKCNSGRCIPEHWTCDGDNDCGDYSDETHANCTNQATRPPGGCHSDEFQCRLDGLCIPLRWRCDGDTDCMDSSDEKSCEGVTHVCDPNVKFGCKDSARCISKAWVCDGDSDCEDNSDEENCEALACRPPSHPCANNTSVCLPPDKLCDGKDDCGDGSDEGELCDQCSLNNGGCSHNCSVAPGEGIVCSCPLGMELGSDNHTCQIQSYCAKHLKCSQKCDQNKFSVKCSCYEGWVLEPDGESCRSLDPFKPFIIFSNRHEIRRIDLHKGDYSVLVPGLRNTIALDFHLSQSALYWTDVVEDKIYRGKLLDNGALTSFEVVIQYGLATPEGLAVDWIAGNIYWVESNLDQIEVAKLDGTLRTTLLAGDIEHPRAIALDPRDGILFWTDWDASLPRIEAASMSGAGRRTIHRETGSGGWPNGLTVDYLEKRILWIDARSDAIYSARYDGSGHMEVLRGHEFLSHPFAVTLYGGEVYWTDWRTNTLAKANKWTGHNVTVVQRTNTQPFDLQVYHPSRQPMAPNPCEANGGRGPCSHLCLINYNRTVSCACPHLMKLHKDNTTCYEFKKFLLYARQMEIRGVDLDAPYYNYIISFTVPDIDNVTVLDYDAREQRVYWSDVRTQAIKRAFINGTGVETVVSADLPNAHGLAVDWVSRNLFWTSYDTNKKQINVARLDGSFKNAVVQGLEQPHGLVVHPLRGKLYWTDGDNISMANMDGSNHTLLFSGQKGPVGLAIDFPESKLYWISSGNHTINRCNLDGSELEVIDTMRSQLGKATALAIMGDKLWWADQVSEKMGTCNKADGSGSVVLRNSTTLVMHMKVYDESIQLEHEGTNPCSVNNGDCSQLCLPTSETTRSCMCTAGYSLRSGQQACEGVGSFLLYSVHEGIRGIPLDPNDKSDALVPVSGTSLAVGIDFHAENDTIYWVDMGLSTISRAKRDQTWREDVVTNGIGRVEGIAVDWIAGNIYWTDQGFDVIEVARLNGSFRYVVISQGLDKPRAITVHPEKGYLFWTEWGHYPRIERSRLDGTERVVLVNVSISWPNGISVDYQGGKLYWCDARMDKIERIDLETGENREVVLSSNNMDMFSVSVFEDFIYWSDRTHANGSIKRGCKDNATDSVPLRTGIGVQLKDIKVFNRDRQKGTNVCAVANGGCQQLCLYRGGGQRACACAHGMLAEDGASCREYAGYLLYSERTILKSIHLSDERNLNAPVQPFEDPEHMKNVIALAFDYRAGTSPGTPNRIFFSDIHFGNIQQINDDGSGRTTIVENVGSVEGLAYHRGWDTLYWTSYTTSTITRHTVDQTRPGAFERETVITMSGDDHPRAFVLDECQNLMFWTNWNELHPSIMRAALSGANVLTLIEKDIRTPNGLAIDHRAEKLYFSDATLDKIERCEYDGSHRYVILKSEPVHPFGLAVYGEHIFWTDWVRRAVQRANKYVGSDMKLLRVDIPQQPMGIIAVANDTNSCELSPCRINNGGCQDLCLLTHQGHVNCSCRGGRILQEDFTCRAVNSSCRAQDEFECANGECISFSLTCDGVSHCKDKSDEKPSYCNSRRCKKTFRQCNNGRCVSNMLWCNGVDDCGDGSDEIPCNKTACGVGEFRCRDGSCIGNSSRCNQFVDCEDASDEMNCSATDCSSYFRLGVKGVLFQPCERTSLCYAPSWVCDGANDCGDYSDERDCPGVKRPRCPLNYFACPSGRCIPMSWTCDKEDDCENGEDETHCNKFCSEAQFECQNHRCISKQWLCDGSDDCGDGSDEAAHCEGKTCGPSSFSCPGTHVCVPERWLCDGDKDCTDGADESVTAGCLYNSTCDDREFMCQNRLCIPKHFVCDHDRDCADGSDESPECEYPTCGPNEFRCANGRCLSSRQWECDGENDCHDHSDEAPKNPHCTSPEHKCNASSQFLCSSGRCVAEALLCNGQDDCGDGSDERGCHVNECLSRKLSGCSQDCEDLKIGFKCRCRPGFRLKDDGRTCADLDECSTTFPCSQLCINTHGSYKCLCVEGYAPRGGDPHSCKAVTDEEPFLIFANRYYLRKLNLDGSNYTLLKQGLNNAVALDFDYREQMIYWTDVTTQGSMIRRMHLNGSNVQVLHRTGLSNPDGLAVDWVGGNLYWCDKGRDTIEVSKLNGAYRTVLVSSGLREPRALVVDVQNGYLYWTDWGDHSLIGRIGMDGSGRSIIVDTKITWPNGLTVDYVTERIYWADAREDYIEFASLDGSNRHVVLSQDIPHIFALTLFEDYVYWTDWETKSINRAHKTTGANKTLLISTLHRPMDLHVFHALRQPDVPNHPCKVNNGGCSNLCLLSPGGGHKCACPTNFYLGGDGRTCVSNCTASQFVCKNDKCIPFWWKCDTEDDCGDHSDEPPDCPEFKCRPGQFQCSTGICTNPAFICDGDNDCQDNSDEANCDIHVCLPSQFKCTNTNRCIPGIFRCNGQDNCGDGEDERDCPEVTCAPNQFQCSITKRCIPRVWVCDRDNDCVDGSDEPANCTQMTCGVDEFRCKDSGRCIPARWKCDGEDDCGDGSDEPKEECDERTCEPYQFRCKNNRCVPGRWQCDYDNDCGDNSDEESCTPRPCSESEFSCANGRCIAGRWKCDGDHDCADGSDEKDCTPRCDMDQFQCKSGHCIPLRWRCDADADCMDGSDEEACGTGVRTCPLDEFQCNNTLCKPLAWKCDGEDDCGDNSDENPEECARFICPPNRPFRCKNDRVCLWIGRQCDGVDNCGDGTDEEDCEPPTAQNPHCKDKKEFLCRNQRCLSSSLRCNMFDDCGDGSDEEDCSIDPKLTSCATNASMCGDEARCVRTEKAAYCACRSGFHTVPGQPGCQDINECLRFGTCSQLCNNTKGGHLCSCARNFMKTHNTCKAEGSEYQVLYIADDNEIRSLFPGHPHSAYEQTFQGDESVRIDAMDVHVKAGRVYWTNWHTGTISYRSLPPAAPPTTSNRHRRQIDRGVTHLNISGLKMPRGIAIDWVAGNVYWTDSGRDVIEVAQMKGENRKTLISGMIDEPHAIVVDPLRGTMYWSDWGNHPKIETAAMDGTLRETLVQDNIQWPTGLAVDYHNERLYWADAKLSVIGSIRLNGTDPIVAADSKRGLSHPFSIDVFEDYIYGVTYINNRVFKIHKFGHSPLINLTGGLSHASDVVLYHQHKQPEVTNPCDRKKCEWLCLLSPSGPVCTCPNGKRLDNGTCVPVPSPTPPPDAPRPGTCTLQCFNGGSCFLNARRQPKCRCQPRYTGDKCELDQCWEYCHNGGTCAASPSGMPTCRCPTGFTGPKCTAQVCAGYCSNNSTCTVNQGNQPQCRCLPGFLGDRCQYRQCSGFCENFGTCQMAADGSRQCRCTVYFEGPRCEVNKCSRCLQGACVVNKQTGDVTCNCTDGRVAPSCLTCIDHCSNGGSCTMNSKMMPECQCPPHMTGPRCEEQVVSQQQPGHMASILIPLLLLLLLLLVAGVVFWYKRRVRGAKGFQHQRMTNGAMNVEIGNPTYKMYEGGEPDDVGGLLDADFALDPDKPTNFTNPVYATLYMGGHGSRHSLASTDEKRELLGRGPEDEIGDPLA

With “RAP: human receptor associated protein, a specific LRP1 inhibitor” the “BEI% of 125I-Aβ40 after RAP pretreatment” value (LRP1 [1]; caffeine-treated mice, without RAP 80.4 ±[…]) was 76.9 ±2.5%, the “reduction in BEI% values by RAP” value (LRP1 [1]; control mice) was “about 33%” and the “reduction in BEI% values by RAP” value (LRP1 [1]; rifampicin-treated mice) was roughly 13%. For the same molecule, the “BEI% of 125I-Aβ40 after RAP pretreatment” value (LRP1 [1]; rifampicin-treated mice, without RAP 82.4±[…]) was 69.7 ±3.3%.
With `Cn1c(=O)c2c(ncn2C)n(C)c1=O` [Caffeine] the “body weight observation during treatment” value [2] was “weight loss”, the “increase in P-gp expression in brain microvessels (immunofluorescence)” value (P-gp [3]) was 2.3 fold and the “Drug concentration Plasma” value ([4]; 3 h after last ip dose (rifampicin 20 mg/kg, caffeine 40 mg/kg daily), n = 12) was 20000 ± 5400 ng/mL. For the same molecule, the Kp at 3 h ([4]; male, C57BL/6, mouse, brain homogenate / plasma, ip) was 0.5, the concentration at 3 h ([4]; male, C57BL/6, mouse, ip) was 11800 ± 3600 ng/mL and the “effect on microvessels' RAGE expression (western blot)” value (RAGE) was “did not alter; also recorded: Insignificant differences”. The “effect on brain homogenate's MRP1 expression (western blot)” value (MRP1) was “did not alter; also recorded: Insignificant differences”, the “increase in LRP1 level (densitometric analysis of western blot)” value (LRP1 [5]) was “but not caffeine” and the “increase in mRNA level of LRP1 (RT-PCR)” value (LRP1 [6]) was “did not show any effect”. The “increase in LRP1 expression in brain microvessels (immunofluorescence)” value (LRP1 [7]) was 1.2 fold and the plasma protein binding [8] was 10–37%.
For `C/C=C/C[C@@H](C)C(=O)[C@H]1C(=O)N[C@@H](C(C)C)C(=O)N(C)CC(=O)N(C)[C@@H](CC(C)C)C(=O)N[C@@H](C(C)C)C(=O)N(C)[C@@H](CC(C)C)C(=O)N[C@@H](C)C(=O)N[C@H](C)C(=O)N(C)[C@@H](CC(C)C)C(=O)N(C)[C@@H](CC(C)C)C(=O)N(C)[C@@H](C(C)C)C(=O)N1C` [Valspodar], the “reduction in BEI% values by valspodar” value (P-gp [9]; caffeine-treated mice) was roughly 32%, the “BEI% of 125I-Aβ40 after valspodar pretreatment” value (P-gp [9]; caffeine-treated mice, without valspodar 80.4±[…]) was 48.1 ±2.3% and the “reduction in BEI% values by valspodar” value (P-gp [9]; rifampicin-treated mice) was roughly 25%. For the same molecule, the “BEI% of 125I-Aβ40 after valspodar pretreatment” value (P-gp [9]; rifampicin-treated mice, without valspodar 82.4±[…]) was 57.5± 1.1%.
In the case of `CO[C@H]1/C=C/O[C@@]2(C)Oc3c(C)c(O)c4c(O)c(c(/C=N/N5CCN(C)CC5)c(O)c4c3C2=O)NC(=O)/C(C)=C\C=C\[C@H](C)[C@H](O)[C@@H](C)[C@@H](O)[C@@H](C)[C@H](OC(C)=O)[C@@H]1C` [Rifampicin], the “free (unbound) plasma level in humans” value [10] is given as 1.08 µg/mL, the “increase in mRNA of MDR1 (RT-PCR)” value (MDR1) is given as 1.5 fold and the concentration at 3 h ([4]; male, C57BL/6, mouse, ip) is given as 150 ± 80 ng/mL. The “increase in P-gp level (densitometric analysis of western blot)” value (P-gp [11]) was 1.45 fold, the “increase in LRP1 level (densitometric analysis of western blot)” value (LRP1 [5]) was 1.2 fold and the “increase in mRNA level of LRP1 (RT-PCR)” value (LRP1 [6]) was 1.4 fold. For the same molecule, the “effect on rate of cognitive decline” value (cognitive decline) was “attenuated the rate of cognitive decline”.
